# ChEMBL document CHEMBL4706474, “Tetrahydro-2-naphthyl and 2-Indanyl Triazolopyrimidines Targeting Plasmodium falciparum Dihydroorotate Dehydrogenase Display Potent and Selective Antimalarial Activity” (J Med Chem, 2016)
# pEC50, pIC50: −log10 of the molar value.
# Tests used:
# [1] = Cmax in Sprague-Dawley rat at 24.4 mg/kg, po measured over 24 hrs by LC-MS analysis; assay type: ADME, organism-based; design: route oral, dose 24.4 mg/kg, time >24; settings: in vivo
# [2] = Inhibition of N-terminal His6-tagged Plasmodium falciparum DHODH expressed in Escherichia coli BL21 using L-DHO as substrate and CoQ as co-substrate by DCIP dye based spectrophotometric assay
# [3] = Inhibition of N-terminal His6-tagged Plasmodium vivax DHODH expressed in Escherichia coli BL21 using L-DHO as substrate and CoQ as co-substrate by DCIP dye based spectrophotometric assay
# Plasmodium falciparum [4] = assay: Antiplasmodial activity against Plasmodium falciparum 3D7 infected in RBC assessed as reduction in parasitemia incubated for 72 hrs by SYBR green dye-based assay; assay type: functional, organism-based; settings: rbc
# [5] = Inhibition of N-terminal His6-tagged dog DHODH expressed in Escherichia coli BL21 using L-DHO as substrate and CoQ as co-substrate by DCIP dye based spectrophotometric assay; design: species or system Canis lupus familiaris
# [6] = Lipophilicity, logD of the compound at pH 7.4; assay type: physicochemical; settings: buffer
# [7] = Kinetic solubility of compound in phosphate buffer at pH 6.5 measured after 30 mins by HPLC-UV based analysis; assay type: physicochemical; settings: phosphate buffer, pH 6.5, read-out: Kinetic_solubility
# [8] = Protein binding in human plasma assessed as bound fraction by LC-MS analysis based ultracentrifugation assay; assay type: ADME, cell-free; settings: read-out: PPB (converted)
# [9] = Protein binding in rat plasma assessed as bound fraction by LC-MS analysis based ultracentrifugation assay; assay type: ADME, cell-free; settings: read-out: PPB (converted)
# [10] = Protein binding in mouse plasma assessed as bound fraction by LC-MS analysis based ultracentrifugation assay; assay type: ADME, cell-free; settings: read-out: PPB (converted)
# [11] = Intrinsic clearance in rat liver microsomes assessed per mg protein at 1 uM by LC-MS analysis; assay type: ADME, Microsome; settings: microsomes, 1 µM
# [12] = Intrinsic clearance in mouse liver microsomes at 1 uM by LC-MS analysis; assay type: ADME, Microsome
# [13] = Solubility of compound in 0.1 N HCl measured after 5 to 6 hrs by HPLC-UV based analysis; assay type: physicochemical; settings: buffer; time 5-6 hrs
# Cytochrome P450 3A4 = Cytochrome P450 3A4 (Homo sapiens, UniProt P08684); assay: Inhibition of CYP3A4 in human liver microsomes using isoform-specific probe substrates in presence of NADPH-generating system by LC-MS analysis; assay type: ADME
# [14] = Tmax in Swiss mouse at 20 mg/kg, po administered as single dose via gavage measured over 24 hrs by LC-MS analysis; assay type: ADME, organism-based; settings: in vivo
# [15] = Apparent half-life in Swiss mouse at 20 mg/kg, po administered as single dose via gavage measured over 24 hrs by LC-MS analysis; assay type: ADME, organism-based; settings: in vivo
# [16] = Cmax in Swiss mouse at 20 mg/kg, po administered as single dose via gavage measured over 24 hrs by LC-MS analysis; assay type: ADME, organism-based; design: route oral, dose 20 mg/kg, time >24; settings: in vivo
# [17] = AUC (0 to infinity) in Swiss mouse at 20 mg/kg, po administered as single dose via gavage measured over 24 hrs by LC-MS analysis; assay type: ADME, organism-based; design: route oral, dose 20 mg/kg, time >24; settings: in vivo
# [18] = Unbound Cmax in Swiss mouse at 20 mg/kg, po administered as single dose via gavage measured over 24 hrs by LC-MS analysis; assay type: ADME, organism-based; settings: in vivo
# [19] = Unbound AUC (0 to infinity) in Swiss mouse at 20 mg/kg, po administered as single dose via gavage measured over 24 hrs by LC-MS analysis; assay type: ADME, organism-based; settings: in vivo
# [20] = Elimination half-life in Swiss mouse at 20 mg/kg, po administered as single dose via gavage measured over 24 hrs by LC-MS analysis; assay type: ADME, organism-based; settings: in vivo, read-out: beta t1/2 (converted)
# [21] = Apparent half-life in Sprague-Dawley rat at 2 mg/kg, iv administered as infusion for 10 mins by LC-MS analysis; assay type: ADME, organism-based; settings: in vivo, read-out: t1/2(app) (converted)
# [22] = AUC (0 to infinity) in Sprague-Dawley rat at 2 mg/kg, iv administered as infusion for 10 mins by LC-MS analysis; assay type: ADME, organism-based; design: route intravenous, dose 2 mg/kg, time 10 min; settings: in vivo
# [23] = Unbound clearance in Sprague-Dawley rat at 2 mg/kg, iv administered as infusion for 10 mins by LC-MS analysis; assay type: ADME, organism-based; settings: in vivo
# [24] = Volume of distribution at steady state in Sprague-Dawley rat at 2 mg/kg, iv administered as infusion for 10 mins by LC-MS analysis; assay type: ADME, organism-based; settings: in vivo
# [25] = Unbound volume of distribution at steady state in Sprague-Dawley rat at 2 mg/kg, iv administered as infusion for 10 mins by LC-MS analysis; assay type: ADME, organism-based; settings: in vivo
# [26] = Unbound Cmax in Sprague-Dawley rat at 24.4 mg/kg, po measured over 24 hrs by LC-MS analysis; assay type: ADME, organism-based; settings: in vivo
# [27] = AUC (0 to infinity) in Sprague-Dawley rat at 24.4 mg/kg, po measured over 24 hrs by LC-MS analysis; assay type: ADME, organism-based; design: route oral, dose 24.4 mg/kg, time >24; settings: in vivo
# [28] = Unbound AUC (0 to infinity) in Sprague-Dawley rat at 24.4 mg/kg, po measured over 24 hrs by LC-MS analysis; assay type: ADME, organism-based; settings: in vivo
# [29] = Oral bioavailability in Sprague-Dawley rat at 24.4 mg/kg measured over 24 hrs by LC-MS analysis; assay type: ADME, organism-based; settings: in vivo
# [30] = Solubility of compound in FeSSIF at pH 5.8 measured after 5 to 6 hrs by HPLC-UV based analysis; assay type: physicochemical; settings: simulated gi fluid, time 5-6 hrs
# [31] = Unbound AUC (0 to infinity) in Sprague-Dawley rat at 2 mg/kg, iv by LC-MS analysis; assay type: ADME, organism-based; settings: in vivo
# [32] = Protein binding in Swiss mouse plasma at 20 mg/kg, po administered as single dose via gavage measured over 24 hrs by LC-MS analysis; assay type: ADME, organism-based; settings: read-out: PPB (converted)
# [33] = Protein binding in Sprague-Dawley rat plasma at 2 mg/kg, iv administered as infusion for 10 mins by LC-MS analysis; assay type: ADME, organism-based; settings: read-out: PPB (converted)
# in vivo [34] = settings: Sprague-Dawley, rat, po, 24.4 mg/kg
# [35] = Solubility of compound in FaSSIF at pH 6.5 measured after 5 to 6 hrs by HPLC-UV based analysis
# Cytochrome P450 2C19 = Cytochrome P450 2C19 (Homo sapiens, UniProt P33261); assay: Inhibition of CYP2C19 in human liver microsomes using isoform-specific probe substrates in presence of NADPH-generating system by LC-MS analysis; assay type: ADME
# [36] = Intrinsic clearance in human pooled liver microsomes assessed per mg protein at 1 uM by LC-MS analysis; assay type: ADME, Microsome; settings: microsomes, 1 µM
# [37] = Solubility of compound in FeSSIF at pH 5 measured after 5 to 6 hrs by HPLC-UV based analysis; assay type: physicochemical; settings: simulated gi fluid, time 5-6 hrs
# [38] = Apparent half-life in Sprague-Dawley rat at 1.9 mg/kg, iv administered as infusion for 10 mins by LC-MS analysis; assay type: ADME, organism-based; settings: in vivo, read-out: t1/2(app) (converted)
# [39] = AUC (0 to infinity) in Sprague-Dawley rat at 1.9 mg/kg, iv administered as infusion for 10 mins by LC-MS analysis; assay type: ADME, organism-based; design: route intravenous, dose 1.9 mg/kg, time 10 min; settings: in vivo
# [40] = Unbound clearance in Sprague-Dawley rat at 1.9 mg/kg, iv administered as infusion for 10 mins by LC-MS analysis; assay type: ADME, organism-based; settings: in vivo
# [41] = Volume of distribution at steady state in Sprague-Dawley rat at 1.9 mg/kg, iv administered as infusion for 10 mins by LC-MS analysis; assay type: ADME, organism-based; settings: in vivo
# [42] = Unbound volume of distribution at steady state in Sprague-Dawley rat at 1.9 mg/kg, iv administered as infusion for 10 mins by LC-MS analysis; assay type: ADME, organism-based; settings: in vivo
# [43] = Cmax in Sprague-Dawley rat at 18.2 mg/kg, po measured over 24 hrs by LC-MS analysis; assay type: ADME, organism-based; design: route oral, dose 18.2 mg/kg, time >24; settings: in vivo
# [44] = Unbound Cmax in Sprague-Dawley rat at 18.2 mg/kg, po measured over 24 hrs by LC-MS analysis; assay type: ADME, organism-based; settings: in vivo
# [45] = AUC (0 to infinity) in Sprague-Dawley rat at 18.2 mg/kg, po measured over 24 hrs by LC-MS analysis; assay type: ADME, organism-based; design: route oral, dose 18.2 mg/kg, time >24; settings: in vivo
# [46] = Unbound AUC (0 to infinity) in Sprague-Dawley rat at 18.2 mg/kg, po measured over 24 hrs by LC-MS analysis; assay type: ADME, organism-based; settings: in vivo
# [47] = Oral bioavailability in Sprague-Dawley rat at 18.2 mg/kg measured over 24 hrs by LC-MS analysis; assay type: ADME, organism-based; settings: in vivo
# Plasmodium falciparum [48] = assay: Antiplasmodial activity against Plasmodium falciparum 3D7 infected in po dosed NSG mouse assessed as reduction in parasitemia administered once daily for 4 consecutive days starting from day 3 post-infection and measured 24 hrs post last dose by flow cytometric analysis; assay type: functional; settings: 3D7, po, 96 h, time 4 day
# [49] = Unbound AUC (0 to infinity) in Sprague-Dawley rat at 1.9 mg/kg, iv by LC-MS analysis; assay type: ADME, organism-based; settings: in vivo
# [50] = Protein binding in Sprague-Dawley rat plasma at 1.9 mg/kg, iv administered as infusion for 10 mins by LC-MS analysis; assay type: ADME, organism-based; settings: read-out: PPB (converted)
# in vivo [51] = settings: Sprague-Dawley, rat, po, 18.2 mg/kg
# Sequence of Cytochrome P450 3A4 (P08684 whole entry, canonical isoform): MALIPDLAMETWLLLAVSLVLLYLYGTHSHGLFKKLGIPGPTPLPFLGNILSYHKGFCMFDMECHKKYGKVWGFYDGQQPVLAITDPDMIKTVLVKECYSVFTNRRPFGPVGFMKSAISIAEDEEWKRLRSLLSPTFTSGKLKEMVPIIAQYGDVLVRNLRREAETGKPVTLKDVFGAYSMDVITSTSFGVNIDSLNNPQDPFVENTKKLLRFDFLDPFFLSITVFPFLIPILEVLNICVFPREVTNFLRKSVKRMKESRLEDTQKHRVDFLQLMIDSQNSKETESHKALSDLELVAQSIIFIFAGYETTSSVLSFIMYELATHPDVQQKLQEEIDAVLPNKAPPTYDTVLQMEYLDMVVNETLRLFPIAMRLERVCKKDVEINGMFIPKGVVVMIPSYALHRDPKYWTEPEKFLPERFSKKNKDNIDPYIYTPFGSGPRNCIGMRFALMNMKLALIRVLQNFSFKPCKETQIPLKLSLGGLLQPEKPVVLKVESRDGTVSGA
# Sequence of Cytochrome P450 2C19 (P33261 whole entry, canonical isoform): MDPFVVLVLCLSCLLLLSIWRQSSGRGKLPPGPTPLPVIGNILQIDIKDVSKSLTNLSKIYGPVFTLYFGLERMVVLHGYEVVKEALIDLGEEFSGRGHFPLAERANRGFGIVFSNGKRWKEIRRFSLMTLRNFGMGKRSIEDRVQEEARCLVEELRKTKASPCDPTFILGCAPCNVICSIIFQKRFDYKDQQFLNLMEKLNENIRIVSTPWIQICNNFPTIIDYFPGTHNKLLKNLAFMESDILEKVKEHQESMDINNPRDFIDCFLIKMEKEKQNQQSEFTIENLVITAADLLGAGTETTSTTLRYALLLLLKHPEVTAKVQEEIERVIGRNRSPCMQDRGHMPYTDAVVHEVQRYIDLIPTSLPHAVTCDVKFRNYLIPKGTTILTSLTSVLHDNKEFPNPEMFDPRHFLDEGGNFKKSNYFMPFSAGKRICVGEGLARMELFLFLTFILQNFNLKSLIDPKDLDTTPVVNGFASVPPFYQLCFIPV
SMILES,pIC50 [2],pIC50 [3],pEC50 (Plasmodium falciparum [4]),pIC50 [5],logD [6],solubility kinetic at 0.5 h [7] [µg/mL],fraction unbound [8],fraction unbound [9],Intrinsic clearance in rat liver microsomes (uL/min/mg protein) [11] [µL/min],intrinsic clearance [12] [µL/min],Tmax [14] [h],t1/2(app) [15] [h],Cmax [16] [µM],AUC [17] [µM·h],fCmax [18] [µM],fAUC [19] [µM·h],half-life [20] [h],fraction unbound at 24 h [32],solubility [35] [µg/mL],further results
Cc1cc(NC2CCc3cc(Br)ccc3C2)n2nc(C(C)(F)F)nc2n1 (stereo in doubt),8.34,7.62,8.59,< 4.00,4,3.1,0.01,0.003,11,26,1,2.1,8.6,51,0.07,0.41,2,0.008,13,Cmax [1]: 37 µM; fraction unbound [10]: 0.008; solubility [13]: 189 µg/mL; IC50 (Cytochrome P450 3A4): > 20000 nM; half-life [21]: 6.2 h; AUC(0-inf) [22]: 30 µM·h; CL free [23]: 933 mL/min/kg; Vdss [24]: 1.1 L/kg; fVdss [25]: 367 L/kg; fCmax [26]: 0.11 µM; AUC(0-inf) [27]: 318 µM·h; fAUC [28]: 0.95 µM·h; bioavailability [29]: 86%; solubility [30]: 211 µg/mL; fAUC [31]: 0.09 µM·h; fraction unbound at 10 min [33]: 0.003; Tmax at 24 h (in vivo [34]): 2.5 h
Cc1cc(NC2CCc3cc(Cl)ccc3C2)n2nc(C(C)(F)F)nc2n1 (stereo in doubt),8.43,7.54,8.42,< 4.00,3.9,3.1,0.012,0.008,33,44,1,1.9,7,19.7,0.06,0.16,2,0.008,47,IC50 (Cytochrome P450 2C19): > 20000 nM; microsomal intrinsic clearance [36]: < 7 µL/min; solubility [37]: 211 µg/mL; half-life [38]: 7.1 h; AUC(0-inf) [39]: 24 µM·h; CL free [40]: 438 mL/min/kg; Vdss [41]: 1.5 L/kg; fVdss [42]: 188 L/kg; Cmax [43]: 23.8 µM; fCmax [44]: 0.19 µM; AUC(0-inf) [45]: 227 µM·h; fAUC [46]: 1.82 µM·h; bioavailability [47]: 100%; ED90 (Plasmodium falciparum [48]): > 30 mg/kg; fAUC [49]: 0.19 µM·h; fraction unbound at 10 min [50]: 0.008; Tmax at 24 h (in vivo [51]): 4 h
